Patent US12655130B2 (ASSEMBLY BIOSCIENCES, INC., priority 2020, dated 2026)
Like-named read-outs stand apart in the source and are kept apart here.

System: HBV viral load (viral production from HepAD38 cells)
Assay: Activity of test compounds on viral production from HepAD38 cells (viral load by qPCR of HBV core sequence)
Type: cell-based
Conditions: viral load lowering, 5 days, qPCR of supernatant, read-out: VL HepAD38 EC50 range
Procedure, shortened: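 EC50 and CC50 come from four-parameter logistic fits: HBV core DNA in supernatant by TaqMan qPCR against DNA standards, normalised to DMSO controls, and cell viability by CellTiter-Glo. Cells were plated at 50,000/well without tetracycline (2% FBS) and exposed to compounds (highest 10 μM) for 5 days, 37 °C.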

[1] = Hepatitis B virus, HePAD38, 120 h

| SMILES | EC50 [1] [nM] | EC50 [nM] |
| --- | --- | --- |
| C[C@H](O)c1cc(C2(O)CC3CC(c4ncn(C)c4C(=O)Nc4ccc(F)c(Cl)c4)CC3C2)n(C)n1 (stereo partly drawn) [Example 78, N-(3-Chloro-4-fluorophenyl)-4-(−5-hydroxy-5-(3-((S)-1-hydroxyethyl)-1-methyl-1H-pyrazol-5-yl)octahydropentalen-2-yl)-1-methyl-1H-imidazole-5-carboxamide] | < 10 |  |
| O=C1CC2CC(c3nc4n(c3C(=O)Nc3ccc(F)c(Cl)c3)CCCC4)CC2C1 (stereo not drawn) [Example 81, N-(3-Chloro-4-fluorophenyl)-2-(5-oxooctahydropentalen-2-yl)-5,6,7,8-tetrahydroimidazo[1,2-a]pyridine-3-carboxamide] |  | 10 to 50 |
| O=C(Nc1ccc(F)c(Cl)c1)c1c(C2CC3CC(O)CC3C2)nc2n1CCOC2 (stereo not drawn) [Example 82, N-(3-Chloro-4-fluorophenyl)-2-(5-hydroxyoctahydropentalen-2-yl)-5,6-dihydro-8H-imidazo[2,1-c][1,4]oxazine-3-carboxamide] | 50 to 500 |  |
| CC(C)(C)OC(=O)N1CCn2c(nc(C3CC4CC(O)CC4C3)c2C(=O)Nc2ccc(F)c(Cl)c2)C1 (stereo not drawn) [Example 84, tert-Butyl 3-((3-chloro-4-fluorophenyl)carbamoyl)-2-(5-hydroxy-octahydropentalen-2-yl)-5,6-dihydroimidazo[1,2-a]pyrazine-7(8H)-carboxylate] | 50 to 500 |  |
| O=C(Nc1ccc(F)c(Cl)c1)c1c(C2CC3CC(O)CC3C2)nc2n1CCNC2 (stereo not drawn) [Example 85, N-(3-chloro-4-fluorophenyl)-2-(5-hydroxyoctahydropentalen-2-yl)-5,6,7,8-tetrahydroimidazo[1,2-a]pyrazine-3-carboxamide] | 50 to 500 |  |
| CC(=O)N1CCn2c(nc(C3CC4CC(O)CC4C3)c2C(=O)Nc2ccc(F)c(Cl)c2)C1 (stereo not drawn) [Example 87, 7-acetyl-N-(3-chloro-4-fluorophenyl)-2-(5-hydroxyoctahydropentalen-2-yl)-5,6,7,8-tetrahydroimidazo[1,2-a]pyrazine-3-carboxamide] | < 10 |  |
| CC(C)(C)OC(=O)N1CCn2c(nc(C3CC4CC(=O)CC4C3)c2C(=O)Nc2ccc(F)c(Cl)c2)C1 (stereo not drawn) [Example 90, tert-butyl 3-((3-chloro-4-fluorophenyl)carbamoyl)-2-(5-oxooctahydro-pentalen-2-yl)-5,6-dihydroimidazo[1,2-a]pyrazine-7(8H)-carboxylate] | 50 to 500 |  |
| CN1CCn2c(nc(C3CC4CC(O)CC4C3)c2C(=O)Nc2ccc(F)c(Cl)c2)C1 (stereo not drawn) [Example 91, N-(3-chloro-4-fluorophenyl)-2-(5-hydroxyoctahydropentalen-2-yl)-7-methyl-5,6,7,8-tetrahydroimidazo[1,2-a]pyrazine-3-carboxamide] | < 10 |  |
| Cc1nn(C)c(C2(O)CC3CC(c4ncn(C)c4C(=O)Nc4ccc(F)c(Cl)c4)CC3C2)c1F (stereo not drawn) [Example 92, N-(3-chloro-4-fluorophenyl)-4-(5-(4-fluoro-1,3-dimethyl-1H-pyrazol-5-yl)-5-hydroxyoctahydropentalen-2-yl)-1-methyl-1H-imidazole-5-carboxamide] | < 10 |  |
| COc1cc(C2(O)CC3CC(c4ncn(C)c4C(=O)Nc4ccc(F)c(Cl)c4)CC3C2)n(C)n1 (stereo not drawn) [Example 93, N-(3-chloro-4-fluorophenyl)-4-(5-hydroxy-5-(3-methoxy-1-methyl-1H-pyrazol-5-yl)octahydropentalen-2-yl)-1-methyl-1H-imidazole-5-carboxamide] | < 10 |  |
| CC(C)c1cc(C2(O)CC3CC(c4ncn(C)c4C(=O)Nc4ccc(F)c(Cl)c4)CC3C2)n(C)n1 (stereo not drawn) [Example 94, N-(3-chloro-4-fluorophenyl)-4-(5-hydroxy-5-(3-isopropyl-1-methyl-1H-pyrazol-5-yl)octahydropentalen-2-yl)-1-methyl-1H-imidazole-5-carboxamide] | < 10 |  |
| Cn1cnc(C2CC3CC(O)(Cn4ccc(O)n4)CC3C2)c1C(=O)Nc1ccc(F)c(Cl)c1 (stereo not drawn) [Example 95, N-(3-chloro-4-fluorophenyl)-4-(5-hydroxy-5-((3-hydroxy-1H-pyrazol-1-yl)methyl)octahydropentalen-2-yl)-1-methyl-1H-imidazole-5-carboxamide] | 10 to 50 |  |
| CN(C)c1ccn(CC2(O)CC3CC(c4ncn(C)c4C(=O)Nc4ccc(F)c(Cl)c4)CC3C2)n1 (stereo not drawn) [Example 96, N-(3-chloro-4-fluorophenyl)-4-(5-((3-(dimethylamino)-1H-pyrazol-1-yl)methyl)-5-hydroxyoctahydropentalen-2-yl)-1-methyl-1H-imidazole-5-carboxamide] | < 10 |  |
| Cn1cnc(C2CC3CC(O)(Cn4ccc(C(C)(C)C)n4)CC3C2)c1C(=O)Nc1ccc(F)c(Cl)c1 (stereo not drawn) [Example 97, 4-(5-((3-(tert-butyl)-1H-pyrazol-1-yl)methyl)-5-hydroxyoctahydropentalen-2-yl)-N-(3-chloro-4-fluorophenyl)-1-methyl-1H-imidazole-5-carboxamide] | < 10 |  |
| Cn1cnc(C2CC3CC(O)(c4c(Cl)c(N)nn4C)CC3C2)c1C(=O)Nc1ccc(F)c(Cl)c1 (stereo not drawn) [Example 98, 4-(5-(3-amino-4-chloro-1-methyl-1H-pyrazol-5-yl)-5-hydroxyoctahydropentalen-2-yl)-N-(3-chloro-4-fluorophenyl)-1-methyl-1H-imidazole-5-carboxamide] | < 10 |  |
| Cn1cnc(C2CC3CC(O)(c4c(C(F)(F)F)cnn4C)CC3C2)c1C(=O)Nc1ccc(F)c(Cl)c1 (stereo not drawn) [Example 99, N-(3-chloro-4-fluorophenyl)-4-(5-hydroxy-5-(1-methyl-4-(trifluoromethyl)-1H-pyrazol-5-yl)octahydropentalen-2-yl)-1-methyl-1H-imidazole-5-carboxamide] | < 10 |  |
| CN(C)S(=O)(=O)c1cc(C2(O)CC3CC(c4ncn(C)c4C(=O)Nc4ccc(F)c(Cl)c4)CC3C2)n(C)n1 (stereo not drawn) [Example 100, N-(3-chloro-4-fluorophenyl)-4-(5-(3-(N,N-dimethylsulfamoyl)-1-methyl-1H-pyrazol-5-yl)-5-hydroxyoctahydropentalen-2-yl)-1-methyl-1H-imidazole-5-carboxamide] | < 10 |  |
| Cn1cnc(C2CC3CC(O)(Cn4ccc(Cl)n4)CC3C2)c1C(=O)Nc1ccc(F)c(Cl)c1 (stereo not drawn) [Example 101, 4-(5-((3-Chloro-1H-pyrazol-1-yl)methyl)-5-hydroxyoctahydropentalen-2-yl)-N-(3-chloro-4-fluorophenyl)-1-methyl-1H-imidazole-5-carboxamide] | < 10 |  |
| CC(C)n1nc(N)c(Cl)c1C1(O)CC2CC(c3ncn(C)c3C(=O)Nc3ccc(F)c(Cl)c3)CC2C1 (stereo not drawn) [Example 102, 4-(5-(3-amino-4-chloro-1-isopropyl-1H-pyrazol-5-yl)-5-hydroxyoctahydropentalen-2-yl)-N-(3-chloro-4-fluorophenyl)-1-methyl-1H-imidazole-5-carboxamide] | < 10 |  |
| Cn1cnc(C2CC3CC(O)(c4c(Cl)c(N)nn4C)CC3C2)c1C(=O)Nc1ccc(F)cc1 (stereo not drawn) [Example 103, 4-(5-(3-amino-4-chloro-1-methyl-1H-pyrazol-5-yl)-5-hydroxyoctahydropentalen-2-yl)-N-(4-fluorophenyl)-1-methyl-1H-imidazole-5-carboxamide] | < 10 |  |
| Cn1cnc(C2CC3CC(O)(c4cc(C(C)(C)C#N)nn4C)CC3C2)c1C(=O)Nc1ccc(F)c(Cl)c1 (stereo not drawn) [Example 104, N-(3-chloro-4-fluorophenyl)-4-(5-(3-(2-cyanopropan-2-yl)-1-methyl-1H-pyrazol-5-yl)-5-hydroxyoctahydropentalen-2-yl)-1-methyl-1H-imidazole-5-carboxamide] | < 10 |  |
| Cn1cnc(C2CC3CC(O)(c4cc(C(C)(C)C(F)(F)F)nn4C)CC3C2)c1C(=O)Nc1ccc(F)c(Cl)c1 (stereo not drawn) [Example 105, N-(3-chloro-4-fluorophenyl)-4-(5-hydroxy-5-(1-methyl-3-(1,1,1-trifluoro-2-methylpropan-2-yl)-1H-pyrazol-5-yl)octahydropentalen-2-yl)-1-methyl-1H-imidazole-5-carboxamide] | < 10 |  |
| Cn1cnc(C2CC3CC(O)(c4cc(C(C)(C)C(N)=O)nn4C)CC3C2)c1C(=O)Nc1ccc(F)c(Cl)c1 (stereo not drawn) [Example 106, 4-(5-(3-(1-amino-2-methyl-1-oxopropan-2-yl)-1-methyl-1H-pyrazol-5-yl)-5-hydroxyoctahydropentalen-2-yl)-N-(3-chloro-4-fluorophenyl)-1-methyl-1H-imidazole-5-carboxamide] | < 10 |  |
| Cn1cnc(C2CC3CC(O)(c4cc(C(O)C(F)(F)F)nn4C)CC3C2)c1C(=O)Nc1ccc(F)c(C#N)c1 (stereo not drawn) [Example 107, N-(3-Cyano-4-fluorophenyl)-4-(5-hydroxy-5-(1-methyl-3-(2,2,2-trifluoro-1-hydroxyethyl)-1H-pyrazol-5-yl)octahydropentalen-2-yl)-1-methyl-1H-imidazole-5-carboxamide] | < 10 |  |
| Cn1cnc(C2CC3CC(O)(c4cc(C(C)(C)O)nn4C)CC3C2)c1C(=O)Nc1ccc(F)c(C#N)c1 (stereo not drawn) [Example 108, N-(3-Cyano-4-fluorophenyl)-4-(5-hydroxy-5-(3-(2-hydroxypropan-2-yl)-1-methyl-1H-pyrazol-5-yl)octahydropentalen-2-yl)-1-methyl-1H-imidazole-5-carboxamide] | < 10 |  |
| CC(O)c1cc(C2(O)CC3CC(c4ncn(C)c4C(=O)Nc4ccc(F)c(Cl)c4)CC3C2)n(C)n1 (stereo not drawn) [Example 109, N-(3-Chloro-4-fluorophenyl)-4-(5-hydroxy-5-(3-(1-hydroxyethyl)-1-methyl-1H-pyrazol-5-yl)octahydropentalen-2-yl)-1-methyl-1H-imidazole-5-carboxamide] | < 10 |  |
| Cn1cc(C2(O)CC3CC(c4nc(Cl)n(C)c4C(=O)Nc4ccc(F)c(Cl)c4)CC3C2)c(C(F)(F)F)n1 (stereo not drawn) [Example 110, 2-Chloro-N-(3-chloro-4-fluorophenyl)-4-(5-hydroxy-5-(1-methyl-3-(trifluoromethyl)-1H-pyrazol-4-yl)octahydropentalen-2-yl)-1-methyl-1H-imidazole-5-carboxamide] | < 10 |  |
